# Experimental data taken from patent US20080234254A1, “Inhibitors of Histone Deacetylase” (UNIVERSITY OF LEEDS, priority 2004, published 2008).
# Like-named read-outs stand apart in the source and are kept apart here.
# Columns and labels:
# Format in all cases: cell-based
# OVCAR-8 = experiment: Screening against cancer cell lines: OVCAR-8 (Ovarian)
# From the text: (§1) Screening of Benzamide Derivatives Against Cancer Cell Lines Tables 1 and 2 tabulate by way of example the results obtained for compounds (4) and (6).
# UACC-257 = experiment: Screening against cancer cell lines: UACC-257 (Melanoma)
# From the text: as §1
# (§2) 7 melanoma cancer cell lines were screened against both compound (4) and MS275.
# cancer cell lines = experiment: Screening of benzamide derivatives against cancer cell lines (summary); conditions: summary of Tables 1 and 2
# From the text: as §1
# IGROV1 = experiment: Screening against cancer cell lines: IGROV1 (Ovarian)
# From the text: as §1
# (§3) 6 ovarian cancer cell lines were screened against both compound (4) and MS275.
# NCI-H23 = experiment: Screening against cancer cell lines: NCI-H23 (Non-Small Cell Lung)
# From the text: as §1
# (§4) 8 non-small cell lung cancer cell lines were screened against both compound (4) and MS275.
# NCI/ADR-RES = experiment: Screening against cancer cell lines: NCI/ADR-RES (Breast)
# From the text: as §1
# (§5) 7 breast cancer cell lines were screened against both compound (4) and MS275.
# ACHN = experiment: Screening against cancer cell lines: ACHN (Renal)
# From the text: as §1
# (§6) 7 renal cancer cell lines were screened against both compound (4) and MS275.
# OVCAR-4 = experiment: Comparison test versus MS275: OVCAR-4 (ovarian cancer); conditions: Homo sapiens, read-out: potency (quantity not named; values match GI50 of Table 1)
# From the text: as §3
# RXF 393 = experiment: Screening against cancer cell lines: RXF 393 (Renal)
# From the text: as §1, §6
# 786-0 = experiment: Comparison test versus MS275: 786-0 (renal cancer); conditions: Homo sapiens, read-out: potency (quantity not named; values match GI50 of Table 1)
# From the text: as §6
# SK-OV-3 = experiment: Comparison test versus MS275: SK-OV-3 (ovarian cancer); conditions: Homo sapiens, read-out: potency (quantity not named; values match GI50 of Table 1)
# From the text: as §3
# breast cancer cell lines = experiment: Comparison test versus MS275: 7 breast cancer cell lines; conditions: in 3 cell lines of 7 breast cancer cell lines screened
# From the text: as §5
# LOX IMVI = experiment: Screening against cancer cell lines: LOX IMVI (Melanoma)
# From the text: as §1, §2
# RPMI-8226 = experiment: Screening against cancer cell lines: RPMI-8226 (Leukaemia)
# From the text: as §1
# renal cancer cell lines = experiment: Comparison test versus MS275: 7 renal cancer cell lines; conditions: in 4 cell lines of 7 renal cancer cell lines screened
# From the text: as §6
# KM-12 = experiment: Comparison test versus MS275: KM-12 (colon cancer); conditions: Homo sapiens, KM12, read-out: potency (quantity not named; values match GI50 of Table 1)
# From the text: (§7) 6 colon cancer cell lines were screened against both compound (4) and MS275.
# UACC-62 = experiment: Screening against cancer cell lines: UACC-62 (Melanoma)
# From the text: as §1
# NCI-H522 = experiment: Screening against cancer cell lines: NCI-H522 (Non-Small Cell Lung)
# From the text: as §1, §4
# [1] = system: ovarian cancer cell lines; experiment: Comparison test versus MS275: 6 ovarian cancer cell lines; conditions: in 3 cell lines of 6 ovarian cancer cell lines screened
# From the text: as §3
# colon cancer cell lines = experiment: Comparison test versus MS275: 6 colon cancer cell lines; conditions: in 3 cell lines of 6 colon cancer cell lines screened
# From the text: as §7
# HCT-15 = experiment: Screening against cancer cell lines: HCT-15 (Colon)
# From the text: as §1, §7
# SK-MEL-28 = experiment: Screening against cancer cell lines: SK-MEL-28 (Melanoma)
# From the text: as §1, §2
# SR = experiment: Screening against cancer cell lines: SR (Leukaemia); conditions: Leukaemia
# From the text: as §1
# MDA-MB-231/ATCC = experiment: Screening against cancer cell lines: MDA-MB-231/ATCC (Breast)
# From the text: as §1, §5
# [2] = system: melanoma cancer cell lines; experiment: Comparison test versus MS275: 7 melanoma cancer cell lines; conditions: in 3 cell lines of 7 melanoma cancer cell lines screened
# From the text: as §2
# SN12C = experiment: Screening against cancer cell lines: SN12C (Renal)
# From the text: as §1, §6
# [3] = system: non-small cell lung cancer cell lines; experiment: Comparison test versus MS275: 8 non-small cell lung cancer cell lines; conditions: in 2 cell lines of 8 non-small cell lung cancer cell lines screened
# From the text: as §4
# MDA-MB-435 = experiment: Screening against cancer cell lines: MDA-MB-435 (Breast)
# From the text: as §1, §5
# [4] = Homo sapiens, Table 1, read-out: LC50 (the source's name)
# [5] = Homo sapiens, Breast, Table 1, read-out: GI50
# [6] = Homo sapiens, Breast, Table 1, read-out: LC50 (the source's name)
# [7] = Homo sapiens, breast cancer, comparison versus MS275, read-out: potency (quantity not named; values match GI50 of Table 1)
# [8] = Homo sapiens, Renal, Table 1, read-out: GI50
# [9] = Homo sapiens, Renal, Table 1, read-out: LC50 (the source's name)
# [10] = Homo sapiens, renal cancer, comparison versus MS275, read-out: potency (quantity not named; values match GI50 of Table 1)
compound,measurement,setting,value
"C=C(CN1CCc2ccccc2C1)c1ccc(C(=O)Nc2ccccc2N)cc1 [Compound (4), N-(2-Amino-phenyl)-4-[1-(3,4-dihydroisoquinolin-2(1H)-ylmethyl)vinyl]benzamide]",GI50,"OVCAR-8; Homo sapiens, Table 1",768 nM
same,CC50,OVCAR-8; [4],> 50000 nM
same,TGI,OVCAR-8; Table 1,12500 nM
same,GI50,"UACC-257; Homo sapiens, UACC-257, Melanoma, Table 1, read-out: GI50",499 nM
same,CC50,"UACC-257; Homo sapiens, UACC-257, Melanoma, Table 1, read-out: LC50 (the source's name)",> 50000 nM
same,GI50,"UACC-257; Homo sapiens, UACC-257, melanoma, comparison versus MS275, read-out: potency (quantity not named; values match GI50 of Table 1)",500 nM
same,TGI,"UACC-257; UACC-257, Melanoma, Table 1",15500 nM
same,activity against cancer cell lines (in words),cancer cell lines,potently inhibited
same,GI50,"IGROV1; Homo sapiens, IGROV-1, IGROV1, Ovarian, Table 1, read-out: GI50",245 nM
same,CC50,"IGROV1; Homo sapiens, IGROV-1, IGROV1, Ovarian, Table 1, read-out: LC50 (the source's name)",> 50000 nM
same,GI50,"IGROV1; Homo sapiens, IGROV-1, IGROV1, ovarian cancer, comparison versus MS275, read-out: potency (quantity not named; values match GI50 of Table 1)",250 nM
same,TGI,"IGROV1; IGROV1, Ovarian, Table 1",10500 nM
same,GI50,"NCI-H23; Homo sapiens, NCI-H23, Non-Small Cell Lung, Table 1, read-out: GI50",178 nM
same,CC50,"NCI-H23; Homo sapiens, NCI-H23, Non-Small Cell Lung, Table 1, read-out: LC50 (the source's name)",11400 nM
same,GI50,"NCI-H23; Homo sapiens, NCI-H23, non-small cell lung cancer, comparison versus MS275, read-out: potency (quantity not named; values match GI50 of Table 1)",180 nM
same,TGI,"NCI-H23; NCI-H23, Non-Small Cell Lung, Table 1",1500 nM
same,TGI,"NCI/ADR-RES; Breast, Table 1",2000 nM
same,GI50,NCI/ADR-RES; [5],613 nM
same,CC50,NCI/ADR-RES; [6],> 50000 nM
same,GI50,NCI/ADR-RES; [7],610 nM
same,GI50,ACHN; [8],844 nM
same,CC50,ACHN; [9],14400 nM
same,GI50,ACHN; [10],840 nM
same,TGI,"ACHN; Renal, Table 1",2800 nM
same,GI50,OVCAR-4,1910 nM
same,GI50,"RXF 393; Homo sapiens, RXF 393, Renal, Table 1, read-out: GI50",102 nM
same,CC50,"RXF 393; Homo sapiens, RXF 393, Renal, Table 1, read-out: LC50 (the source's name)",46000 nM
same,GI50,"RXF 393; Homo sapiens, RXF 393, renal cancer, comparison versus MS275, read-out: potency (quantity not named; values match GI50 of Table 1)",100 nM
same,TGI,"RXF 393; RXF 393, Renal, Table 1",600 nM
same,GI50,786-0,1050 nM
same,GI50,SK-OV-3,1080 nM
same,potency over MS275,breast cancer cell lines,> 2 fold
same,GI50,"LOX IMVI; Homo sapiens, Melanoma, Table 1, read-out: GI50",99 nM
same,CC50,"LOX IMVI; Homo sapiens, Melanoma, Table 1, read-out: LC50 (the source's name)",6400 nM
same,GI50,"LOX IMVI; Homo sapiens, melanoma, comparison versus MS275, read-out: potency (quantity not named; values match GI50 of Table 1)",90 nM
same,TGI,"LOX IMVI; Melanoma, Table 1",600 nM
same,GI50,"RPMI-8226; Homo sapiens, Table 1",510 nM
same,CC50,RPMI-8226; [4],> 50000 nM
same,TGI,RPMI-8226; Table 1,— (‘—’ indicates a concentration exceeding 50 μM.)
same,potency over MS275,renal cancer cell lines,> 2 fold
same,GI50,KM-12,1150 nM
same,GI50,"UACC-62; Homo sapiens, Table 1",666 nM
same,CC50,UACC-62; [4],20700 nM
same,TGI,UACC-62; Table 1,2900 nM
same,GI50,"NCI-H522; Homo sapiens, NCI-H522, Non-Small Cell Lung, Table 1, read-out: GI50",220 nM
same,CC50,"NCI-H522; Homo sapiens, NCI-H522, Non-Small Cell Lung, Table 1, read-out: LC50 (the source's name)",20800 nM
same,GI50,"NCI-H522; Homo sapiens, NCI-H522, non-small cell lung cancer, comparison versus MS275, read-out: potency (quantity not named; values match GI50 of Table 1)",220 nM
same,TGI,"NCI-H522; NCI-H522, Non-Small Cell Lung, Table 1",1400 nM
same,potency over MS275,[1],> 2 fold
same,potency over MS275,colon cancer cell lines,> 2 fold
same,TGI,"HCT-15; HCT-15, Colon, Table 1",7800 nM
same,GI50,"HCT-15; Homo sapiens, HCT-15, Colon, Table 1, read-out: GI50",836 nM
same,CC50,"HCT-15; Homo sapiens, HCT-15, Colon, Table 1, read-out: LC50 (the source's name)",> 50000 nM
same,GI50,"HCT-15; Homo sapiens, HCT-15, colon cancer, comparison versus MS275, read-out: potency (quantity not named; values match GI50 of Table 1)",840 nM
same,GI50,"SK-MEL-28; Homo sapiens, SK-MEL-28, Melanoma, Table 1, read-out: GI50",389 nM
same,CC50,"SK-MEL-28; Homo sapiens, SK-MEL-28, Melanoma, Table 1, read-out: LC50 (the source's name)",> 50000 nM
same,GI50,"SK-MEL-28; Homo sapiens, SK-MEL-28, melanoma, comparison versus MS275, read-out: potency (quantity not named; values match GI50 of Table 1)",390 nM
same,TGI,"SK-MEL-28; SK-MEL-28, Melanoma, Table 1",6500 nM
same,GI50,"SR; Homo sapiens, Table 1, read-out: GI50",484 nM
same,CC50,SR; [4],> 50000 nM
same,TGI,SR; Table 1,— (‘—’ indicates a concentration exceeding 50 μM.)
same,TGI,"MDA-MB-231/ATCC; Breast, Table 1",2700 nM
same,GI50,MDA-MB-231/ATCC; [5],748 nM
same,CC50,MDA-MB-231/ATCC; [6],19200 nM
same,GI50,MDA-MB-231/ATCC; [7],750 nM
same,potency over MS275,[2],> 2 fold
same,GI50,SN12C; [8],629 nM
same,CC50,SN12C; [9],27000 nM
same,GI50,SN12C; [10],630 nM
same,TGI,"SN12C; Renal, Table 1",2700 nM
same,potency over MS275,[3],> 2 fold
same,GI50,"MDA-MB-435; Homo sapiens, MDA-MB-435, Breast, Table 1, read-out: GI50",98 nM
same,CC50,"MDA-MB-435; Homo sapiens, MDA-MB-435, Breast, Table 1, read-out: LC50 (the source's name)",~4000 nM
same,GI50,"MDA-MB-435; Homo sapiens, MDA-MB-435, breast cancer, comparison versus MS275, read-out: potency (quantity not named; values match GI50 of Table 1)",90 nM
same,TGI,"MDA-MB-435; MDA-MB-435, Breast, Table 1",600 nM
